Data from PubChem BioAssay AID504.

Molecular target: Ras-related C3 botulinum toxin substrate 3 (Homo sapiens) (UniProt P60763)
Experiment: ligand-induced RAC3 melting temperature shift – biophysical, recombinant human protein, DSF (AID 504)
Conditions: recombinant RAC3, DSF thermal shift, SYPRO orange; at 10 µM; protein 2 µM; buffer 10 mM HEPES; pH 7.5; NaCl 150 mM; active compounds read high

| SMILES | Tm shift [°C] |
| --- | --- |
| N#C/C(=C1\Nc2ccccc2S1)c1ccnc(NCCc2cccnc2)n1 | 2.3 |
| N#CC(C(N)Sc1ccccc1N)C(C#N)C(N)Sc1ccccc1N (configuration not stated) | 2.4 |
